Reference: PMC3566143, “Pantothenamides Are Potent, On-Target Inhibitors of Plasmodium falciparum Growth When Serum Pantetheinase Is Inactivated” (PLoS ONE, 2013)
Where two headings read alike, the source gives them in different places.

System: erythrocytic stage P. falciparum parasites (strain 3D7)
Test: SYBR Green I-based in vitro growth assay (96 h)
Format: cell-based, Plasmodium falciparum
Conditions: for IC50: Plasmodium falciparum, 96 h
Method: Erythrocytic stage P. falciparum parasites (strain 3D7) were maintained within human erythrocytes in continuous culture essentially as described previously, [25]. P. falciparum-infected erythrocytes were routinely cultured in RPMI 1640 medium supplemented with 25 mM HEPES, 20 mM D-glucose, 200 µM hypoxanthine, 24 mg/L gentamycin and Albumax II (0.6%, w/v), which, hereafter is referred to as Albumax-complete RPMI. For several days prior to carrying out the assays testing the effect of compounds on the growth of P. falciparum in medium supplemented with human serum (instead of Albumax II), the parasites were cultured in the same medium mentioned above, except that human serum (10%, v/v, pooled from different blood donors) was used rather than Albumax II. This medium is hereafter referred to as human serum-complete RPMI.
The in vitro antiplasmodial activity of test compounds was determined using the malaria SYBR Green I-based fluorescence assay described by Smilkstein et al., with minor modifications. Briefly, P. falciparum-infected erythrocytes were incubated in culture medium containing two-fold dilutions of the test compounds in 96-well microtiter plates. Assays were initiated with ring-stage P. falciparum-infected erythrocytes at a hematocrit and parasitemia of 1%. Wells containing infected erythrocytes in the presence of chloroquine (0.25–2 µM) served as zero growth controls and wells containing infected erythrocytes in the absence of chloroquine or test compounds served as 100% parasite growth controls. Plates were incubated at 37°C under an atmosphere of 96% nitrogen, 3% carbon dioxide and 1% oxygen for 96 h, before 100 µL from each well was mixed with 100 µL of SYBR Safe DNA gel stain (0.2 µL/mL) in 20 mM Tris, pH 7.5, 5 mM ethylenediaminetetraacetic acid (EDTA), 0.008% (w/v) saponin, 0.08% (v/v) Triton X-100, in a second 96-well microtitre plate. Fluorescence was measured using a FLUOstar OPTIMA multidetection microplate reader from BMG LABTECH with excitation and emission wavelengths of 490 and 520 nm, respectively. The 50% inhibitory concentration (IC50) of each test compound under each test condition was calculated by fitting the data to a sigmoidal curve (typically y = a/(1+ (x/x0)^b) using nonlinear least squares regression (SigmaPlot, Systat Software) and averaging the IC50 estimates from independent experiments.
The antiplasmodial activity of test compounds was assessed in media that had been subjected to different pre-incubations. “Fresh” medium refers to medium that was stored for a maximum of 48 h at 4°C, and incubated at 37°C for a maximum of 1 h, prior to use. “Aged” medium refers to medium that was stored for a minimum of one week at 4°C and incubated intermittently at 37°C, or medium incubated continuously at 37°C for 40 h soon after preparation. As indicated at the relevant positions within the “Results” section, for some experiments the fresh medium used was, more specifically, medium used immediately following preparation, and the aged medium used was, more specifically, medium that was incubated at 37°C for 40 h immediately prior to use.

CC(C)CNC(=O)CCNC(=O)[C@H](O)C(C)(C)CO [Compound 12]
IC50 (3D7, 96 h, fresh Albumax-complete RPMI, 1 µM pantothenate, read-out: IC50 against P. falciparum, fresh medium, 1 μM pantothenate): 133 ± 12 µM | IC50 (3D7, aged Albumax-complete RPMI (37°C for 40 h), 1 µM pantothenate, read-out: IC50 against P. falciparum, aged medium, 1 μM pantothenate): 1.1 ± 0.1 µM | IC50 (3D7, human serum (10%, v/v) medium incubated at 37°C for 40 h, read-out: IC50 against P. falciparum in aged human serum-complete RPMI): 22 ± 10 µM | increase in potency after second ageing of Albumax II-supplemented aged medium (aged + Albumax II + 40 h at 37°C versus aged + fresh Albumax II): > 65 fold | effect of recombinant human pantetheinase on antiplasmodial effect in aged medium (aged Albumax-complete RPMI + 100 ng/mL recombinant human pantetheinase added at start of assay): alleviated the antiplasmodial effect | fold-increase in IC50 following supplementation with 100 µM pantothenate, aged medium (aged Albumax-complete RPMI, IC50 at 100 µM pantothenate / IC50 at 1 µM pantothenate): 21±1 times | effect on parasite growth in aged Albumax-complete RPMI with additional Albumax II (aged medium + additional Albumax II (0.6%, w/v) immediately prior to assay, 200 µM): little-to-no effect on parasite growth | effect on parasite growth at 200 µM in aged Albumax-complete RPMI (aged medium, 200 µM): inhibits parasite growth completely | fold-increase in IC50 following supplementation with 100 µM pantothenate, fresh medium (fresh Albumax-complete RPMI, IC50 at 100 µM pantothenate / IC50 at 1 µM pantothenate): 1.3±0.2 times | effect on parasite growth in fresh human serum-complete RPMI (human serum (10%, v/v), fresh medium, up to 200 µM (highest concentration tested)): little-to-no effect on parasite growth
